Patent publication US12077503B2, “Substituted cyclic amides and their use as herbicides” (FMC CORPORATION, priority 2015, dated 2024)
Read-outs that look alike come from different tables or passages of the source.

Columns and labels:
Type in all cases: in vivo
[1] = tested on: ducksalad (Heteranthera limosa); test: Test B flooded paddy test; settings: Heteranthera limosa, Flood, 250 g ai/ha
Method in brief: (§1)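 Evaluation by eye, against controls, occurred 13–15 d post-treatment in a greenhouse, using a 0 (no effect) to 100 (complete control) scale. Application was into the paddy water, 3 cm deep over the soil, on 2-leaf plants.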

[2] = tested on: sedge, umbrella (small-flower umbrella sedge, Cyperus difformis); test: Test B flooded paddy test; settings: Cyperus difformis, Flood, 250 g ai/ha
Method in brief: as §1

rice (Oryra sativa) = test: Test B flooded paddy test; settings: Oryza sativa, Flood, 250 g ai/ha
Method in brief: as §1

[3] = tested on: barnyardgrass (Echinochloa crus-galli); test: Test B flooded paddy test; settings: Echinochloa crus-galli, Flood, 250 g ai/ha
Method in brief: as §1

[4] = tested on: blackgrass (Alopecurus myosuroides); test: Test A postemergence; settings: Alopecurus myosuroides, post-emergence, 240 h; for pest or weed control at 125 g/ha: 125 g ai/ha
Method in brief: (§2)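 Seeds sprayed preemergence with a directed soil spray, or plants at 2 to 10 cm height and one- to two-leaf stage sprayed postemergence, with test chemicals in a non-phytotoxic solvent mixture containing surfactant, in loam soil–sand blend. Injury rated visually against untreated controls after about 10 d in greenhouse, 0 (no effect) to 100 (complete control).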

corn (Zea mays) = test: Test A postemergence; settings: Zea mays, post-emergence, 240 h
Method in brief: as §2

[5] = tested on: giant foxtail (Setaria faberii); test: Test A postemergence; settings: Setaria faberi, post-emergence, 240 h; for pest or weed control at 125 g/ha: 125 g ai/ha
Method in brief: as §2

[6] = tested on: Galium (catchweed bedstraw, Galium aparine); test: Test A postemergence; settings: Galium, post-emergence, 240 h; for pest or weed control at 125 g/ha: 125 g ai/ha
Method in brief: as §2

[7] = tested on: wheat (Triticum aestivum); test: Test A postemergence; settings: Triticum aestivum, post-emergence, 240 h; for plant injury at 125 g/ha: 125 g ai/ha
Method in brief: as §2

[8] = tested on: pigweed (Amaranthus retroflexus); test: Test A postemergence; settings: Amaranthus retroflexus, post-emergence, 240 h; for pest or weed control at 125 g/ha: 125 g ai/ha
Method in brief: as §2

[9] = tested on: ragweed (common ragweed, Ambrosia elatior); test: Test A postemergence; settings: Ambrosia artemisiifolia, post-emergence, 240 h; for pest or weed control at 125 g/ha: 125 g ai/ha
Method in brief: as §2

[10] = tested on: barnyardgrass (Echinochloa crus-galli); test: Test A postemergence; settings: Echinochloa crus-galli, post-emergence, 240 h; for pest or weed control at 125 g/ha: 125 g ai/ha
Method in brief: as §2

[11] = tested on: ryegrass, Italian (Italian ryegrass, Lolium multiflorum); test: Test A postemergence; settings: Lolium multiflorum, post-emergence, 240 h; for pest or weed control at 125 g/ha: 125 g ai/ha
Method in brief: as §2

Kochia (Kochia scoparia) = test: Test A postemergence; settings: Bassia scoparia, post-emergence, 240 h; for pest or weed control at 125 g/ha: 125 g ai/ha
Method in brief: as §2

Compound: C=CN1C[C@H](c2ccc(C)c(F)c2)[C@@H](C(=O)Nc2cccc(F)c2F)C1=O (racemic) [Compound 1332]
- pest or weed control at 250 g/ha ([1]; 360 h, visually evaluated after 13 to 15 d, read-out: Plant response rating, Ducksalad (0 to 100 scale where 0 is no effect and 100 is complete control)): 100%
- pest or weed control at 250 g/ha ([2]; 360 h, visually evaluated after 13 to 15 d, read-out: Plant response rating, Sedge, Umbrella (0 to 100 scale where 0 is no effect and 100 is complete control)): 0%
- pest or weed control at 250 g/ha (rice (Oryra sativa); 360 h, visually evaluated after 13 to 15 d, read-out: Plant response rating, Rice (0 to 100 scale where 0 is no effect and 100 is complete control)): 0%
- pest or weed control at 250 g/ha ([3]; 360 h, visually evaluated after 13 to 15 d, read-out: Plant response rating, Barnyardgrass (0 to 100 scale where 0 is no effect and 100 is complete control)): 0%
- pest or weed control at 125 g/ha ([4]; Postemergence, visual rating about 10 d after treatment, read-out: Blackgrass plant response rating (0 to 100 scale)): 0%
- pest or weed control at 500 g/ha ([4]; Postemergence, 500 g ai/ha, visual injury, 0 to 100 scale (0 no effect, 100 complete control), approx. 10 d, read-out: Plant response rating, Blackgrass): 30%
- plant injury at 125 g/ha (corn (Zea mays); 125 g ai/ha, Postemergence, visual rating about 10 d after treatment, read-out: Corn plant response rating (0 to 100 scale)): 0%
- Corn plant response rating (crop injury, 0 = no effect, 100 = complete kill) at 500 g/ha (corn (Zea mays); Postemergence, 500 g ai/ha, visual injury, 0 to 100 scale (0 no effect, 100 complete control), approx. 10 d): 0%
- pest or weed control at 125 g/ha ([5]; Postemergence, visual rating about 10 d after treatment, read-out: Foxtail, Giant plant response rating (0 to 100 scale)): 40%
- pest or weed control at 500 g/ha ([5]; Postemergence, 500 g ai/ha, visual injury, 0 to 100 scale (0 no effect, 100 complete control), approx. 10 d, read-out: Plant response rating, Foxtail, Giant): 60%
- pest or weed control at 125 g/ha ([6]; Postemergence, visual rating about 10 d after treatment, read-out: Galium plant response rating (0 to 100 scale)): 0%
- pest or weed control at 500 g/ha ([6]; Postemergence, 500 g ai/ha, visual injury, 0 to 100 scale (0 no effect, 100 complete control), approx. 10 d, read-out: Plant response rating, Galium): 20%
- plant injury at 125 g/ha ([7]; Postemergence, visual rating about 10 d after treatment, read-out: Wheat plant response rating (0 to 100 scale)): 0%
- plant injury at 500 g/ha ([7]; Postemergence, 500 g ai/ha, visual injury, 0 to 100 scale (0 no effect, 100 complete control), approx. 10 d, read-out: Plant response rating, Wheat): 20%
- pest or weed control at 125 g/ha ([8]; Postemergence, visual rating about 10 d after treatment, read-out: Pigweed plant response rating (0 to 100 scale)): 0%
- pest or weed control at 500 g/ha ([8]; Postemergence, 500 g ai/ha, visual injury, 0 to 100 scale (0 no effect, 100 complete control), approx. 10 d, read-out: Plant response rating, Pigweed): 0%
- pest or weed control at 125 g/ha ([9]; Postemergence, visual rating about 10 d after treatment, read-out: Ragweed plant response rating (0 to 100 scale)): 0%
- pest or weed control at 500 g/ha ([9]; Postemergence, 500 g ai/ha, visual injury, 0 to 100 scale (0 no effect, 100 complete control), approx. 10 d, read-out: Plant response rating, Ragweed): 20%
- pest or weed control at 125 g/ha ([10]; Postemergence, visual rating about 10 d after treatment, read-out: Barnyardgrass plant response rating (0 to 100 scale, 0 no effect, 100 complete control)): 50%
- pest or weed control at 500 g/ha ([10]; Postemergence, 500 g ai/ha, visual injury, 0 to 100 scale (0 no effect, 100 complete control), approx. 10 d, read-out: Plant response rating, Barnyardgrass): 60%
- pest or weed control at 125 g/ha ([11]; Postemergence, visual rating about 10 d after treatment, read-out: Ryegrass, Italian plant response rating (0 to 100 scale)): 0%
- pest or weed control at 500 g/ha ([11]; Postemergence, 500 g ai/ha, visual injury, 0 to 100 scale (0 no effect, 100 complete control), approx. 10 d, read-out: Plant response rating, Ryegrass, Italian): 0%
- pest or weed control at 125 g/ha (Kochia (Kochia scoparia); Postemergence, visual rating about 10 d after treatment, read-out: Kochia plant response rating (0 to 100 scale)): 0%
- pest or weed control at 500 g/ha (Kochia (Kochia scoparia); Postemergence, 500 g ai/ha, visual injury, 0 to 100 scale (0 no effect, 100 complete control), approx. 10 d, read-out: Plant response rating, Kochia): 0%

Compound: Cc1cc([C@H]2CNC(=O)[C@@H]2C(=O)Nc2ccccc2F)ccc1F [Compound 717]
- pest or weed control at 250 g/ha ([1]; scale of 0 to 100 where 0 is no effect and 100 is complete control, read-out: Ducksalad plant response rating): 100%
- pest or weed control at 250 g/ha ([2]; scale of 0 to 100 where 0 is no effect and 100 is complete control, read-out: Sedge, Umbrella plant response rating): 0%
- pest or weed control at 250 g/ha (rice (Oryra sativa); scale of 0 to 100 where 0 is no effect and 100 is complete control, read-out: Rice plant response rating): 0%
- pest or weed control at 250 g/ha ([3]; scale of 0 to 100 where 0 is no effect and 100 is complete control, read-out: Barnyardgrass plant response rating): 60%
- pest or weed control at 125 g/ha ([4]; postemergence, visual injury after approximately 10 d, 0 to 100 scale (0 no effect, 100 complete control), read-out: Plant response rating, Blackgrass): 0%
- Corn plant response rating (crop injury, 0 = no effect, 100 = complete kill) at 125 g/ha (corn (Zea mays); 125 g ai/ha, postemergence, visual injury after approximately 10 d, 0 to 100 scale (0 no effect, 100 complete control)): 0%
- pest or weed control at 125 g/ha ([5]; postemergence, visual injury after approximately 10 d, 0 to 100 scale (0 no effect, 100 complete control), read-out: Plant response rating, Foxtail, Giant): 30%
- pest or weed control at 125 g/ha ([6]; postemergence, visual injury after approximately 10 d, 0 to 100 scale (0 no effect, 100 complete control), read-out: Plant response rating, Galium): 40%
- plant injury at 125 g/ha ([7]; postemergence, visual injury after approximately 10 d, 0 to 100 scale (0 no effect, 100 complete control), read-out: Plant response rating, Wheat): 0%
- pest or weed control at 125 g/ha ([8]; postemergence, visual injury after approximately 10 d, 0 to 100 scale (0 no effect, 100 complete control), read-out: Plant response rating, Pigweed): 0%
- pest or weed control at 125 g/ha ([9]; postemergence, visual injury after approximately 10 d, 0 to 100 scale (0 no effect, 100 complete control), read-out: Plant response rating, Ragweed): 0%
- pest or weed control at 125 g/ha ([10]; postemergence, visual injury after approximately 10 d, 0 to 100 scale (0 no effect, 100 complete control), read-out: Plant response rating, Barnyardgrass): 90%
- pest or weed control at 125 g/ha ([11]; postemergence, visual injury after approximately 10 d, 0 to 100 scale (0 no effect, 100 complete control), read-out: Plant response rating, Ryegrass, Italian): 0%
- pest or weed control at 125 g/ha (Kochia (Kochia scoparia); postemergence, visual injury after approximately 10 d, 0 to 100 scale (0 no effect, 100 complete control), read-out: Plant response rating, Kochia): 20%
